Read-outs that look alike come from different tables or passages of the source.
What was measured:
in vivo = settings: male, SD, rat, po
[1] = rat, in vivo, po, cited from earlier work
[2] = rat, in vivo, po; cited from earlier work
Caco-2 cell monolayers = type: in vitro ADME, human
Description: Caco-2 cells were cultured in high glucose DMEM with 10% fetal bovine serum, 1% nonessential amino acids. Cells were cultured in a humidified atmosphere of 5% CO2 at 37°C. After reaching 80% confluens, Caco-2 cells were harvested with 0.05% trypsin-EDTA solution and seeded on top of CC inserts in 6-well plates, which has a surface area of 4.2 cm^2, at a density of 1.0×10^5 cells/cm^2. The protocols for cell culture in Transwell inserts were similar to those described previously.
Hank’s balanced salt solution (HBSS) was used as the transport buffer for the transport study in Caco-2 cell monolayer model. It was prepared by dissolving 9.5 grams of commercial available HBSS powder in 1000 mL water. The pH value of the buffer was adjusted to pH 6.0 by 85% of phosphoric acid.
Cell culture experiments were described previously. Briefly, after culture medium was aspirated, the cell monolayers were washed three times with blank HBSS. The transepithelial electrical resistance (TEER) values of cell monolayers were measured, which were more than […]. The monolayers were incubated with the blank HBSS for 1 h with 37°C. Thereafter the incubation medium was aspirated. […] The amounts of transported compound were measured as a function of time by UPLC-MS method described previously. […] At the end of the transport experiment, integrity of the monolayer was monitored by TEER value.

[3] = rat, in vivo, po
[4] = system: influenza virus strain, A/PR8/34(H1N1); test: Antiviral effect of serum after oral administration on influenza virus in MDCK cells (MTT); type: cell-based; settings: COS 25 mg/kg, ribavirin 20 mg/kg, MTT after 48 h
[5] = design: method as in Gao et al. (2008) [16]; settings: in situ loop method in rats; ref Gao et al. (2008) [16]; cited from earlier work
protein kinase C (PKCα) = target: protein kinase C (PKCα); design: method as in earlier work; settings: read-out: IC50, inhibition of protein kinase C (PKCα); cited from earlier work
GI membrane = GI membrane toxicity by morphological observation; type: in vivo, rat; settings: rats, oral, COS 25 mg/kg
Description: After in vivo pharmacokinetics experiments were carried out for 8 h, the GI was wash with HBSS (pH 7.4) and the segments were removed and immersed in the 4% neutral paraform aldehyde buffer and fixed. Vertical sections were prepared, stained with hematoxylin-eosin, and examined by light microscopy. To be able to describe possible changes in the structure of the tissue, tissues were studied and evaluated for morphological changes using the following parameters: Measurement of the distance between the nucleus and the apical membrane in enterocytes with a measuring-rod. Five measurements in each villus and five villi were measured in each slide. The villi were randomly chosen and measurements were all conducted at the tips of the villi. Villus index was used for duodenum, jejunum and ileum and crypt index for colon. Measurement of height (villi) or depth (crypt) and width (one-half of height or depth) was done with a measuring-rod of five villi/crypts in each slide that were randomly chosen. Height/depth was divided with width to receive the index.

O=C(/C=C/c1ccc(O)c(O)c1)O[C@@H]1C[C@](O)(C(=O)O)C[C@@H](O)[C@H]1O [CHA, Chlorogenic acid]
AUC(0-t) (in vivo): 144 ng·h/mL
T 1/2z ([1]; 60 mg/kg): 1.05 h
T 1/2λz [2]: 3.63 h
T max [2]: 0.75 h
absolute bioavailability orally [2]: about 0.69%

Chito-oligosaccharide [COS]
effect on the P app-value for FTA and CHA compared to the control group (Caco-2 cell monolayers): significant, concentration-dependent increase
CHA AUC0-480 min ([3]; 12.5 mg/kg): 52938.0±3520.0 ng⋅min/mL
FTA AUC0-480 min ([3]; 12.5 mg/kg): 2874.7±564.9 ng⋅min/mL
CHA AUC0-480 min ([3]; 25 mg/kg): 296980.0±36456.0 ng⋅min/mL
FTA AUC0-480 min ([3]; 25 mg/kg): 6286.0±1329.7 ng⋅min/mL
CHA AUC0-480 min ([3]; 50 mg/kg): 152641.5±72581.0 ng⋅min/mL
FTA AUC0-480 min ([3]; 50 mg/kg): 3143.0±572.1 ng⋅min/mL

NC(=O)c1ncn([C@@H]2O[C@H](CO)[C@@H](O)[C@H]2O)n1 [ribavirin]
inhibition rate on influenza virus compared with PBS group [4]: remarkable increase

N[C@H]1[C@H](O[C@H]2[C@H](O)[C@@H](N)[C@H](O[C@H]3[C@H](O)[C@@H](N)[C@H](O[C@H]4[C@H](O)[C@@H](N)[C@H](O[C@H]5[C@H](O)[C@@H](N)[C@H](O[C@H]6[C@H](O)[C@@H](N)C(O)O[C@@H]6CO)O[C@@H]5CO)O[C@@H]4CO)O[C@@H]3CO)O[C@@H]2CO)O[C@H](CO)[C@@H](O)[C@@H]1O (some centres unmarked) [chitosan hexamer]
increase of the bioavailability of insulin and FDs [5]: about 2.5 times

C[C@@H]1O[C@@H](OC[C@H]2O[C@@H](OCCc3ccc(O)c(O)c3)[C@H](O)[C@@H](O)[C@@H]2OC(=O)/C=C/c2ccc(O)c(O)c2)[C@H](O)[C@H](O)[C@H]1O [FTA, forsythoside A]
IC50 (protein kinase C (PKCα)): 1900 nM
AUC(0-t) (in vivo): 28.5 ng·h/mL
T 1/2λz ([1]; 100 mg/kg): 1.24 h
T 1/2λz [2]: 6.72 h
T max [2]: 0.75 h
absolute bioavailability orally [2]: ~0.72%

Triton X-100
Nucleo-apical distance (GI membrane; duodenum, jejunum and ileum, Triton X-100 200 mg/kg, vs PBS group): remarkable decrease
villi/crypt index (GI membrane; duodenum, jejunum, ileum and colon, Triton X-100 200 mg/kg, vs PBS group): remarkable decrease
morphology of the GI membrane (HE sections: stomach, jejunum, colon) (GI membrane; Triton X-100 200 mg/kg as positive control): could cause mucosal damage seriously
